Tests used:
[1] = female, Japanese quail (Coturnix japonica), in vivo, 16 weeks
Method: Tissues were homogenized and extracted three times with tetrahydrofuran containing 0.1% butylated hydroxytoluene by sonication at 5° C. to 10° C. for 30 minutes each time. The combined organic extracts were evaporated to dryness under vacuum at room temperature. The dried residue was redissolved in one ml of HPLC mobile phase and centrifuged at approximately 2000 g for 10 minutes to remove the minor amounts of insoluble solid particles prior to analysis. The majority of carotenoids in bird retinas are esterified (32), so after the initial extraction, the dried carotenoid residue was redissolved in hexane and subjected to saponification in 1.8% (w/v) methanolic potassium hydroxide (KOH) for two hours at room temperature. After saponification, the samples were washed with water until the samples achieved neutral pH. The vials were centrifuged at approximately 2000 g to remove the minor amounts of insoluble solid particles. The solution was evaporated to dryness on a rotary evaporator under reduced pressure at room temperature and reconstituted in the appropriate HPLC solvents.
HPLC analysis was performed on a Thermo Separations (San Jose, Calif.) HPLC system with binary gradient pumps, a refrigerated autosampler, a UV6000 photodiode-array detector (PDA), and an MSQ single quadrupole mass spectrometer. […]

[2] = test system: A2E formation in the RPE; assay: Xanthophyll supplementation in Japanese quail: A2E in RPE/choroid by HPLC-MS; assay type: in vivo, Japanese quail (Coturnix japonica); conditions: for Rise of A2E levels from baseline levels: 16-week supplementation, P=0.1, unsupplemented control rose more than six-fold; for A2E oxidation products in mass spectra versus control group: A2E extracted from RPE, FIG. 5; for A2E levels in the RPE, control group relative to supplemented groups: FIG. 4, 16 weeks, N=4, P<0.001; for Inhibition of A2E formation relative to birds fed a control diet low in carotenoids: high dose supplementation
Method: A2E and its isomers were extracted and isolated from RPE/choroid using a previously described method (8). RPE samples were homogenized in 1:1 CHCl3/MeOH (2 ml) and 0.01 M phosphate-buffered saline (PBS) (1 ml). The homogenizer was washed with 1:1 CHCl3/MeOH (2 ml), 0.01 M PBS (1 ml), and then CHCl3 (2 ml) and CH2Cl2 (2 ml) were added to remove any remaining material. All solutions were combined, and the organic layer was extracted from the aqueous layer. The combined organic extracts were evaporated to dryness under vacuum at room temperature. The residue was dissolved in MeOH for HPLC. The vials were centrifuged at approximately 2000 g to remove the minor amounts of insoluble solid particles prior to analysis.
HPLC analysis was performed on a Thermo Separations (San Jose, Calif.) HPLC system with binary gradient pumps, a refrigerated autosampler, a UV6000 photodiode-array detector (PDA), and an MSQ single quadrupole mass spectrometer. Peak identities were confirmed by PDA and mass spectra and by co-elution with authentic standards as necessary. Calibration was by external standardization curves with authentic standards. […] Typical reproducibility with external standardization in our laboratory is +5%.
A2E HPLC analysis: The dried A2E samples were redissolved in 100 μl of MeOH. A gradient of 84-100% acetonitrile (A) with 0.05% trifluoroacetic acid in H2O (B) over 35 minutes was used to separate A2E at a flow rate of 1.0 ml min^−1 on a reverse-phase C18 column (4.6×250 mm, Phenomenex, Atlanta, Ga.). The column was maintained at room temperature, and the HPLC PDA detector was operated at 440 nm.
MS analysis was performed using a Thermo Separations (San Jose, Calif.) MSQ single quadrupole mass spectrometer, equipped with an electron spray ionization (ESI) source and an atmospheric pressure chemical ionization (APCI) source. A2E and carotenoids were ionized in positive ion ESI and APCI modes, respectively. To avoid overloading of eluted solvent molecules in the mass spectrometer and to optimize ionization conditions, 50% of the eluate was directed to waste with the help of a diverter valve after the PDA detector. The delay time from PDA to MS was 0.13 minutes. […] Selected ion monitoring (SIM) was performed using dwell time of 200 ms for each channel. In SIM mode, the m/z channels 592±3, 608±1.5, 624±1.5, and 640±1.5 were used for A2E and its oxidative products. Typical detection conditions for A2E were: RF lens bias voltage 0.1V, cone voltage 80V and heater temperature 550° C. The ion source and tuning lens parameters were optimized automatically by infusing A2E samples via the injector. For carotenoids, the m/z channels 551±0.7 and 569±0.7 were used for lutein, and 569±0.8 for zeaxanthin. Typical detection conditions were: corona discharge current 5 μA, cone voltage 80V, and probe temperature 500° C.
Adult Japanese quail (Coturnix japonica) were procured from B&D farms (Harrah, Okla.), and all experiments were reviewed and approved by the University of Utah's Institutional Animal Care and Use Committee. The birds were kept under ambient room light on a 12-hour light-dark cycle, and they were divided into three groups of four birds: lutein supplemented, zeaxanthin supplemented, and unsupplemented. All birds were fed daily with a standard turkey diet (˜20 g/day) (Purina Mills, St. Louis, Mo.) that was low in carotenoids (1.10 ng/g). The supplemented birds were gavaged daily with 0.5 ml of a microbial extract rich in lutein or zeaxanthin for 16 weeks (0.2 mg of carotenoid per bird per day). Lutein was prepared from the freshwater alga Chlorella protothecoides CS 41 (Microalgae Supply Service, CSIRO, Hobart Australia) under conditions described earlier (36). Zeaxanthin was obtained from the non-pathogenic bacteria Flavobacterium multivorum ATCC 55238 grown on liquid growth medium as detailed earlier (37). […]

[3] = extensive use in humans as dietary supplements; cited from earlier work

Increase of total lutein and zeaxanthin levels (retina) relative to baseline [1] [fold] | Rise of total retinal carotenoid levels relative to baseline [1] [fold] | SMILES | Rise of A2E levels from baseline levels [2] | A2E oxidation products in mass spectra versus control group [2] | A2E levels in the RPE, control group relative to supplemented groups [2] | Inhibition of A2E formation relative to birds fed a control diet low in carotenoids [2] | Toxicity in humans as dietary supplements [3]
2.8 | 1.6 | CC1=C[C@H](O)CC(C)(C)[C@H]1/C=C/C(C)=C/C=C/C(C)=C/C=C/C=C(C)/C=C/C=C(C)/C=C/C1=C(C)C[C@@H](O)CC1(C)C [Lutein, (3R, 3′R, 6′R)-lutein] | barely any rise from baseline levels | control group had higher levels of oxidation products in comparison | significantly higher for the control group | profound inhibition of A2E formation | no toxicity has ever been reported
 |  | CC1=C(/C=C/C(C)=C/C=C/C(C)=C/C=C/C=C(C)/C=C/C=C(C)/C=C/C2=C(C)C[C@@H](O)CC2(C)C)C(C)(C)C[C@H](O)C1 [Zeaxanthin, (3R, 3′R)-zeaxanthin] | barely any rise from baseline levels | control group had higher levels of oxidation products in comparison | significantly higher for the control group | profound inhibition of A2E formation | no toxicity has ever been reported

Source: patent US20090312438A1, “Compositions and Methods for Attenuating the Formation of A2E in the Retinal Pigment Epithelium” (priority 2008, published 2009)
